± gives the standard deviation of the averaged measurements.
Legend:
[1] = compound: CCN(CC)CCCCNc1ncc2cc(-c3cc(OC)cc(OC)c3)c(NC(=O)NC(C)(C)C)nc2n1; experiment: surviving fraction relative to DMSO-only wells; higher = less growth inhibition; details: exposure time: 5 days
Outline: (§1)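 At 250–500 cells per well in 384-well plates, log-phase tumour cell lines were seeded and, 24 hours on, exposed continuously for five days to inhibitors at 0.5, 1, 5, 10, 50, 100, 500 and 1000 nM. Viability readout was CellTiter-Glo luminescence, reported as surviving fraction normalised to the median of DMSO-only wells.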

SALINOMYCIN = compound: CC[C@@H](C(=O)[C@@H](C)[C@@H](O)[C@H](C)[C@@H]1O[C@@H]([C@@H](CC)C(=O)O)CC[C@@H]1C)[C@H]1O[C@]2(C=C[C@@H](O)[C@]3(CC[C@@](C)([C@H]4CC[C@](O)(CC)[C@H](C)O4)O3)O2)[C@H](C)C[C@@H]1C [SALINOMYCIN]; experiment: as above; details: exposure time: 5 days
Outline: as §1

| Test System | surviving fraction ([1]; 0.5 nM) | surviving fraction ([1]; 1 nM) | surviving fraction ([1]; 5 nM) | surviving fraction ([1]; 10 nM) | surviving fraction ([1]; 50 nM) | surviving fraction ([1]; 100 nM) | surviving fraction ([1]; 500 nM) | surviving fraction ([1]; 1000 nM) | surviving fraction (SALINOMYCIN; 0.5 nM) | surviving fraction (SALINOMYCIN; 1 nM) | surviving fraction (SALINOMYCIN; 5 nM) | surviving fraction (SALINOMYCIN; 10 nM) | surviving fraction (SALINOMYCIN; 50 nM) | surviving fraction (SALINOMYCIN; 100 nM) | surviving fraction (SALINOMYCIN; 500 nM) | surviving fraction (SALINOMYCIN; 1000 nM) |
| --- | --- | --- | --- | --- | --- | --- | --- | --- | --- | --- | --- | --- | --- | --- | --- | --- |
| G292 BONE | 0.836 ± 0.27 | 0.97 ± 0.048 | 0.958 ± 0.027 | 0.918 ± 0.042 | 0.495 ± 0.17 | 0.387 ± 0.008 | 0.181 ± 0.012 | 0.18 ± 0.0066 | 0.971 ± 0.016 | 0.967 ± 0.055 | 1 ± 0.086 | 0.966 ± 0.046 | 0.932 ± 0.017 | 0.828 ± 0.013 | 0.204 ± 0.011 | 0.146 ± 0.0081 |
| HCC38 BREAST | 1.15 ± 0.23 | 0.97 ± 0.19 | 1.15 ± 0.17 | 1.12 ± 0.19 | 0.979 ± 0.37 | 1.04 ± 0.18 | 0.824 ± 0.17 | 0.846 ± 0.2 | 1.26 ± 0.26 | 1.14 ± 0.15 | 1.3 ± 0.19 | 1.26 ± 0.081 | 1.05 ± 0.14 | 0.862 ± 0.2 | 0.415 ± 0.03 | 0.317 ± 0.052 |
| HCC70 BREAST | 0.977 ± 0.084 | 1 ± 0.017 | 0.957 ± 0.12 | 1.07 ± 0.041 | 1.05 ± 0.06 | 1.08 ± 0.037 | 0.962 ± 0.055 | 1 ± 0.09 | 0.915 ± 0.055 | 1.011 ± 0.0081 | 1.02 ± 0.035 | 0.973 ± 0.022 | 0.948 ± 0.11 | 0.671 ± 0.061 | 0.251 ± 0.011 | 0.147 ± 0.015 |
| HMLE3 BREAST | 0.929 ± 0.061 | 0.934 ± 0.049 | 0.895 ± 0.05 | 0.995 ± 0.056 | 0.764 ± 0.049 | 0.683 ± 0.052 | 0.428 ± 0.0075 | 0.41 ± 0.023 | 0.898 ± 0.036 | 0.894 ± 0.1 | 1.02 ± 0.028 | 0.926 ± 0.09 | 1.19 ± 0.032 | 0.988 ± 0.028 | 0.056 ± 0.0095 | 0.0347 ± 0.0042 |
| HMT3552 BREAST | 1.15 | 0.971 | 0.993 | 1.05 | 0.89 | 0.98 | 0.827 | 0.803 | 1.07 | 1 | 1.07 | 1.11 | 1.13 | 1.05 | 0.801 | 0.728 |
| HS578T BREAST | 0.97 ± 0.1 | 1.03 ± 0.19 | 0.973 ± 0.098 | 1.02 ± 0.02 | 0.836 ± 0.021 | 0.801 ± 0.056 | 0.886 ± 0.096 | 0.738 ± 0.095 | 0.874 ± 0.12 | 0.894 ± 0.036 | 0.993 ± 0.16 | 1.01 ± 0.11 | 1.05 ± 0.076 | 0.826 ± 0.096 | 0.589 ± 0.033 | 0.526 ± 0.041 |

Source: the supplement of paper PMC6045584
